Results reported in US20050197364A1, “Amide compounds as ion channel ligands and uses thereof” (priority 2003, published 2005).

Test system: VR1 receptor
Experiment: High throughput calcium imaging assay (Fura2, Flex Station) of VR1 antagonists, pH 5.1 stimulus
Assay type: cell-based
Settings: 1 uM compound; inhibition of calcium ion influx induced by capsaicin stimulation
Experimental: Therefore the functional activity of compounds at the VR1 receptor may be determined by measuring changes in intracellular calcium levels in 293 cells expressing capsaicin-insensitive VR1 receptor variants. A dual wavelength ratiometric dye, Fura2, was used as an indicator of relative levels of calcium ions in a 96 well format using a bench top scanning fluorometer with integrated fluidics and temperature control (Flex Station, Molecular Devices).
293 cells were grown on PDL coated 96-well black-walled plates, in the presence of a DMEM medium containing 5% Penstrep, 5% Glutamax, 200 ug/mL Hygromycin, 5 μg/mL Blasticide and 10% heat inactivated FBS. Prior to assay, the cells were loaded with 5 μg/mL Fura2 in normal saline solution at 37° C. for 40 minutes. Cells were then washed with normal saline to remove the dye.
The assay consists of two stages; a pre-treatment phase followed by a treatment phase.
50 μl of a compound solution was added to the cells (Pre-treatment). Immediately following, 50 μl of the test compound in a saline solution at pH 5.1 was added. Fura2 was excited at 340 and 380 nM to indicate relative calcium concentration. Changes in wavelength measurements were made throughout the course of the experiment in 4 second intervals over a period of 3 minutes. Responses were measured as peak fluorescence ratio after test compound addition minus baseline fluorescence ratio prior to pre-treatment and were calculated using SoftMaxPro softwareData were expressed as percentage inhibition calculated using Excel as follows: [formula]

Row | SMILES | % Inhibition @ 1 uM
1 | O=C(Nc1ccc(N2CCNCC2)c(Cl)c1)c1ccc(-c2ncccc2Cl)c(F)c1 [Compound 183] | + + + + (compound exhibited 75% or greater inhibition of calcium ion influx induced by capsaicin stimulation)
2 | CCOc1ccc(NC(=O)c2ccc(-c3ncccc3Cl)c(OC)c2)cc1 [Compound 256] | + (“+” compound exhibited 0-25% inhibition of calcium ion influx induced by capsaicin stimulation.)
3 | O=C(Nc1ccc(Br)cn1)c1ccc(-c2ncccc2Cl)cc1 [Compound 49] | + + (compound exhibited 25-50% inhibition of calcium ion influx induced by capsaicin stimulation)
4 | O=C(Nc1cccc(OC(F)(F)F)c1)c1ccc(-c2ncccc2Cl)cc1 [Compound 277] | + (“+” compound exhibited 0-25% inhibition of calcium ion influx induced by capsaicin stimulation.)
5 | Cc1ccnc(NC(=O)c2ccc(-c3ncccc3Cl)cn2)c1 [Compound 318] | + (“+” compound exhibited 0-25% inhibition of calcium ion influx induced by capsaicin stimulation.)
6 | O=C(Nc1ccc(Cl)nc1)c1ccc(-c2ncccc2Cl)cc1 [Compound 31] | + (compound exhibited 0-25% inhibition of calcium ion influx induced by capsaicin stimulation)
7 | O=C(Nc1ccncc1)c1ccc(-c2ncccc2Cl)cc1 [Compound 7] | + + + + (compound exhibited 75% or greater inhibition of calcium ion influx induced by capsaicin stimulation)
8 | COc1cccc(NC(=O)c2ccc(-c3ncccc3Cl)cc2F)c1 [Compound 74] | + (compound exhibited 0-25% inhibition of calcium ion influx induced by capsaicin stimulation)
9 | COc1ccc(NC(=O)c2ccc(-c3ncccc3Cl)c(OC)c2)cc1OC [Compound 240] | + (“+” compound exhibited 0-25% inhibition of calcium ion influx induced by capsaicin stimulation.)
10 | COc1ccc(NC(=O)c2ccc(-c3ncccc3Cl)cc2)cc1Cl [Compound 17] | + (compound exhibited 0-25% inhibition of calcium ion influx induced by capsaicin stimulation)
11 | O=C(Nc1ccc2c(c1)OCCO2)c1ccc(-c2ncccc2Cl)cc1 [Compound 1] | + + (compound exhibited 25-50% inhibition of calcium ion influx induced by capsaicin stimulation)
12 | O=C(Nc1cccc(Cl)c1Cl)c1ccc(-c2ncccc2Cl)c(F)c1 [Compound 122] | + + + + (compound exhibited 75% or greater inhibition of calcium ion influx induced by capsaicin stimulation)
13 | N#Cc1ccccc1NC(=O)c1ccc(-c2ncccc2Cl)cc1 [Compound 11] | + (compound exhibited 0-25% inhibition of calcium ion influx induced by capsaicin stimulation)
14 | O=C(O)c1cccc(NC(=O)c2ccc(-c3ncccc3Cl)c(F)c2)c1 [Compound 165] | + (compound exhibited 0-25% inhibition of calcium ion influx induced by capsaicin stimulation)
15 | CC(C)(C)NC(=O)c1ccc(-c2ncccc2Cl)c(F)c1 [Compound 110] | + (compound exhibited 0-25% inhibition of calcium ion influx induced by capsaicin stimulation)
16 | CCCCc1ccc(NC(=O)c2ccc(-c3ncccc3Cl)c(OC)c2)cc1 [Compound 204] | + + (“+ +” compound exhibited 25-50% inhibition of calcium ion influx induced by capsaicin stimulation.)
17 | COc1cc(C(=O)Nc2cccc(C(F)(F)F)c2)ccc1-c1ncccc1Cl [Compound 250] | + + (“+ +” compound exhibited 25-50% inhibition of calcium ion influx induced by capsaicin stimulation.)
18 | O=C(Nc1ccc2ncccc2c1)c1ccc(-c2ncccc2Cl)cn1 [Compound 327] | + (“+” compound exhibited 0-25% inhibition of calcium ion influx induced by capsaicin stimulation.)
19 | Cc1cc(C)nc(NC(=O)c2ccc(-c3ncccc3Cl)cn2)c1 [Compound 312] | + (“+” compound exhibited 0-25% inhibition of calcium ion influx induced by capsaicin stimulation.)
20 | O=C(Nc1ccncn1)c1ccc(-c2ncccc2Cl)cn1 [Compound 319] | + + + + (“+ + + +” compound exhibited 75% or greater inhibition of calcium ion influx induced by capsaicin stimulation.)
21 | COc1cc(C(=O)Nc2cccc(C#N)c2)ccc1-c1ncccc1Cl [Compound 201] | + + + + (“+ + + +” compound exhibited 75% or greater inhibition of calcium ion influx induced by capsaicin stimulation.)
22 | O=C(Nc1ccc2ccccc2c1)c1ccc(-c2ncccc2Cl)c(F)c1 [Compound 160] | + + + + (compound exhibited 75% or greater inhibition of calcium ion influx induced by capsaicin stimulation)
23 | COc1ccc(NC(=O)c2ccc(-c3ncccc3Cl)cn2)cc1O [Compound 338] | + + (“+ +” compound exhibited 25-50% inhibition of calcium ion influx induced by capsaicin stimulation.)
24 | COc1cc(C(=O)Nc2cc(C)nc(C)n2)ccc1-c1ncccc1Cl [Compound 232] | + (“+” compound exhibited 0-25% inhibition of calcium ion influx induced by capsaicin stimulation.)
25 | COc1cc(C(=O)Nc2ccc(C#N)c(Cl)c2)ccc1-c1ncccc1Cl [Compound 248] | + + + + (“+ + + +” compound exhibited 75% or greater inhibition of calcium ion influx induced by capsaicin stimulation.)

Row | SMILES | % Inhibition @ 1 uM
26 | COc1cc(C(=O)Nc2cc(OC)c(OC)c(OC)c2)ccc1-c1ncccc1Cl [Compound 246] | + + + + (“+ + + +” compound exhibited 75% or greater inhibition of calcium ion influx induced by capsaicin stimulation.)
27 | COc1cc(C(=O)Nc2cc(C)ccn2)ccc1-c1ncccc1Cl [Compound 223] | + + + + (“+ + + +” compound exhibited 75% or greater inhibition of calcium ion influx induced by capsaicin stimulation.)
28 | COc1cc(C(=O)Nc2ccncc2)ccc1-c1ncccc1Cl [Compound 218] | + + + + (“+ + + +” compound exhibited 75% or greater inhibition of calcium ion influx induced by capsaicin stimulation.)
29 | O=C(Nc1ccc2ccccc2c1)c1ccc(-c2ncccc2Cl)cc1F [Compound 109] | + + (compound exhibited 25-50% inhibition of calcium ion influx induced by capsaicin stimulation)
30 | Cc1cccnc1NC(=O)c1ccc(-c2ncccc2Cl)cc1 [Compound 48] | + + (compound exhibited 25-50% inhibition of calcium ion influx induced by capsaicin stimulation)
31 | O=C(Nc1ccc2cn[nH]c2c1)c1ccc(-c2ncccc2Cl)cc1 [Compound 273] | + + (“+ +” compound exhibited 25-50% inhibition of calcium ion influx induced by capsaicin stimulation.)
32 | O=C(Nc1ccnc(Cl)c1)c1ccc(-c2ncccc2Cl)cc1 [Compound 33] | + + + + (compound exhibited 75% or greater inhibition of calcium ion influx induced by capsaicin stimulation)
33 | O=C(Nc1ccc2cc[nH]c2c1)c1ccc(-c2ncccc2Cl)cn1 [Compound 340] | + + + + (“+ + + +” compound exhibited 75% or greater inhibition of calcium ion influx induced by capsaicin stimulation.)
34 | O=C(Nc1cccc(Cl)c1)c1ccc(-c2ncccc2Cl)c(F)c1 [Compound 116] | + (compound exhibited 0-25% inhibition of calcium ion influx induced by capsaicin stimulation)
35 | COc1cc(NC(=O)c2ccc(-c3ncccc3Cl)cn2)cc(OC)c1OC [Compound 339] | + (“+” compound exhibited 0-25% inhibition of calcium ion influx induced by capsaicin stimulation.)
36 | N#Cc1cccc(NC(=O)c2ccc(-c3ncccc3Cl)c(F)c2)c1 [Compound 124] | + + + + (compound exhibited 75% or greater inhibition of calcium ion influx induced by capsaicin stimulation)
37 | O=C(Nc1cccc(Br)c1)c1ccc(-c2ncccc2Cl)cc1F [Compound 83] | + + + + (compound exhibited 75% or greater inhibition of calcium ion influx induced by capsaicin stimulation)
38 | CCN(CC)c1ccc(NC(=O)c2ccc(-c3ncccc3Cl)cc2)cc1 [Compound 44] | + + + + (compound exhibited 75% or greater inhibition of calcium ion influx induced by capsaicin stimulation)
39 | O=C(Nc1ccc(C2CCCCC2)cc1)c1ccc(-c2ncccc2Cl)cn1 [Compound 303] | + + + + (“+ + + +” compound exhibited 75% or greater inhibition of calcium ion influx induced by capsaicin stimulation.)
40 | CCn1c2ccccc2c2cc(NC(=O)c3ccc(-c4ncccc4Cl)c(OC)c3)ccc21 [Compound 234] | + (“+” compound exhibited 0-25% inhibition of calcium ion influx induced by capsaicin stimulation.)
41 | O=C(Nc1ccccc1Cl)c1ccc(-c2ncccc2Cl)cc1 [Compound 15] | + (compound exhibited 0-25% inhibition of calcium ion influx induced by capsaicin stimulation)
42 | O=C(Nc1ccc(C(F)(F)F)cn1)c1ccc(-c2ncccc2Cl)c(F)c1 [Compound 149] | + + (compound exhibited 25-50% inhibition of calcium ion influx induced by capsaicin stimulation)
43 | COc1cc(C(=O)Nc2ccc3ccccc3c2)ccc1-c1ncccc1Cl [Compound 236] | + + + + (“+ + + +” compound exhibited 75% or greater inhibition of calcium ion influx induced by capsaicin stimulation.)
44 | O=C(Nc1ccc2cn[nH]c2c1)c1ccc(-c2ncccc2Cl)c(F)c1 [Compound 172] | + + + (compound exhibited 50-75% inhibition of calcium ion influx induced by capsaicin stimulation)
45 | N#Cc1cccc(NC(=O)c2ccc(-c3ncccc3Cl)cc2F)c1 [Compound 84] | + + + + (compound exhibited 75% or greater inhibition of calcium ion influx induced by capsaicin stimulation)
46 | CC(C)(NC(=O)c1ccc(-c2ncccc2Cl)cc1F)c1ccccc1 [Compound 66] | + (compound exhibited 0-25% inhibition of calcium ion influx induced by capsaicin stimulation)
47 | CN(C)c1cccc(NC(=O)c2ccc(-c3ncccc3Cl)cc2)c1 [Compound 43] | + + + + (compound exhibited 75% or greater inhibition of calcium ion influx induced by capsaicin stimulation)
48 | Cc1cc(C)nc(NC(=O)c2ccc(-c3ncccc3Cl)cc2)c1 [Compound 37] | + (compound exhibited 0-25% inhibition of calcium ion influx induced by capsaicin stimulation)
49 | O=C(Nc1ccc(Cl)cc1Cl)c1ccc(-c2ncccc2Cl)cc1 [Compound 16] | + (compound exhibited 0-25% inhibition of calcium ion influx induced by capsaicin stimulation)
50 | COc1cccc(NC(=O)c2ccc(-c3ncccc3Cl)c(OC)c2)c1 [Compound 196] | + + (compound exhibited 25-50% inhibition of calcium ion influx induced by capsaicin stimulation)
